Experimental data: patent US20240207202A1, “COMBINATION THERAPIES TARGETING MITOCHONDRIAL BIOGENESIS FOR CANCER THERAPY” (The Wistar Institute of Anatomy and Biology, priority 2015, published 2024)
Like-named read-outs stand apart in the source and are kept apart here.

How the values were obtained:
[1] = tested on: CCLE melanoma cell lines with BRAFV600 mutations; conditions: MitoB high vs low subgroups, two sample t-test; cited from earlier work
[2] = tested on: BRAFV600E, VEGFR2, PDGFRB, c-KIT; conditions: cited from earlier work
[3] = tested on: BRAF(V600E), BRAF(wild type), c-RAF, VEGFR2, PDGFR, CSF1R, RET, c-KIT, SRC, STE20; conditions: range over several intracellular kinases; cited from earlier work
autophagic flux = assay: Autophagic flux in WM9 cells expressing mCherry-eGFP-LC3B; type: cell-based, human; conditions: WM9, 72 h, Gamitrinib 1 μM or Spautin-1 10 μM combined with PLX4720 10 μM/PD0325901 1 μM
Description: WM9 cells stably expressing pLVO-Puro-mCherry-eGFP-LC3 were analyzed with a BD LSR II flow cytometer. Fluorescence of mCherry and eGFP was recorded to derive the ratio of mCherryheight over eGFP-height. This ratio indicates the autophagic flux.
Briefly, autophagic flux was assessed by FACS analysis of WM9 cells expressing the mCherry-eGFPLC3B construct that were transfected with the indicated siRNAs targeting autophagy and ER stress response and treated for 72 h with DMSO or the combination of PLX4720 at 10 μM and PD0325901 at 1 μM. The data represent the average of 2 biological replicates. Induction of apoptosis and cell death was assessed by PSVue 643 staining in WM9 cells expressing the mCherry-eGFP-LC3B construct transfected with the indicated siRNAs targeting autophagy and ER stress response and treated for 72 h with DMSO or the combination of PLX4720 at 10 μM and PD0325901 at 1 μM. Autophagic flux was assessed by FACS analysis of WM9 cells expressing the mCherry-eGFPLC3B construct treated for 72 h with Gamitrinib at 1 μM or Spautin-1 at 10 μM in combination with PLX4720 at 10 μM/PD0325901 at 1 μM. Cells treated with DMSO were used as the control for setting up the gate. Induction of apoptosis and cell death was assessed by PSVue 643 staining in WM9 cells treated for 72 h with Gamitrinib at 1 μM or Spautin-1 at 10 μM in combination with PLX4720 at 10 μM/PD0325901 at 1 μM. […]

WM9 melanoma cells = assay: Induction of apoptosis and cell death by PSVue 643 staining in WM9 melanoma cells; type: cell-based, human; conditions: WM9, 72 h
Description: Adherent melanoma cells were harvested with 0.05% Trypsin-EDTA and were washed once with 1×DPBS. Cells were labeled with CellTrace™ Violet according to the manufacturer's protocol and were allowed to adhere to tissue culture plates overnight following the drug treatment. […] Cells were then immediately subjected to FACS analysis using a BD LSR II flow cytometer and at least 5,000 cells per sample were acquired.
Cell suspensions were kept in the dark at room temperature for 5 min. 0.2 ml 1×PBS supplemented with 10% FBS was added to each cell suspension and cells were immediately analyzed by BD LSRII.
Briefly, autophagic flux was assessed by FACS analysis of WM9 cells expressing the mCherry-eGFPLC3B construct that were transfected with the indicated siRNAs targeting autophagy and ER stress response and treated for 72 h with DMSO or the combination of PLX4720 at 10 μM and PD0325901 at 1 μM. The data represent the average of 2 biological replicates. […] Autophagic flux was assessed by FACS analysis of WM9 cells expressing the mCherry-eGFPLC3B construct treated for 72 h with Gamitrinib at 1 μM or Spautin-1 at 10 μM in combination with PLX4720 at 10 μM/PD0325901 at 1 μM. Cells treated with DMSO were used as the control for setting up the gate.

MitoBiogenesis [4] = conditions: Malme-3M and COLO829, 8 h; public gene expression microarray data; cited from earlier work
[5] = tested on: mitochondrial respiratory chain complex subunits; assay: Expression of mitochondrial respiratory chain complex subunits in WM9 cells (qRT-PCR, RPPA, immunoblot); type: cell-based, human; conditions: qRT-PCR
Description: One μg total mRNA was reverse transcribed using a Maxima First Strand cDNA Synthesis Kit for qRT-PCR (Thermo Fisher). Fast SYBR® Green Master Mix (Life Technologies) was used with cDNA template and primers to evaluate the expression of target genes and GAPDH. Primers used were purchased from Integrated DNA Technologies. Amplifications were performed using an Applied Biosystems® 7500 Real-Time PCR System (Life Technologies). All experiments were performed in triplicate. Expression ratios of controls were normalized to 1. Please see Extended Experimental Procedures for the list of PCR primer sequences. The raw data of gene expression microarrays generated from Illumina Chips were normalized, background-corrected and summarized using the R package “lumi” (Du et al., 2008). […] To reduce false positives, the unexpressed probes were removed. The R package “limma” (Smyth, 2004, 2005) was employed for gene differential expression analysis, followed by multiple test correction by the Benjamini and Hochberg procedure (Benjamini and Hochberg, 1995). […] We also conducted GSEA as previously reported (Subramanian et al., 2005). For GSEA, we analyzed gene sets obtained from the Molecular Signatures Database (broadinstitute.org/gsea/msigdb/). The same differential expression analysis method was applied to RPPA data. Cells were washed with ice-cold PBS containing 100 μM Na3VO4 and scraped off culture dishes. After centrifugation, cell pellets were lysed in buffer containing 10 mM Tris-HCl, pH 7.8, 150 mM NaCl, 1 mM EDTA, 1% Nonidet P-40, 1 mM Na3VO4 and protease inhibitors (Roche complete protease inhibitor tablets). Lysates were cleared by micro-centrifugation and protein concentrations were determined with Protein Assay Dye Reagent Concentrate (Bio-Rad). For western blots, 25 μg of each lysate were run on 15-well 10% or 12% SDS-PAGE gels and transferred onto nitrocellulose membranes using a dye fast Trans-BlotR Turbo™ transfer system (Bio-Rad). Blots were blocked in SEA BLOCK Blocking Buffer (Thermo Scientific) diluted with 1×TBS at 1:1 ratio at room temperature for 1 h, incubated overnight with primary antibody at 4° C., stained with secondary antibodies conjugated to IRDye® Infrared Dyes (LI-COR Biosciences) and then visualized using an Odyssey flatbed scanner (LI-COR Biosciences).

MitoBiogenesis [6] = assay: Expression of 18 MitoBiogenesis genes in melanoma cells (microarray, qRT-PCR, immunoblot); type: cell-based, human; conditions: for expression of MitoBiogenesis: qRT-PCR, 72 h
Description: One μg total mRNA was reverse transcribed using a Maxima First Strand cDNA Synthesis Kit for qRT-PCR (Thermo Fisher). Fast SYBR® Green Master Mix (Life Technologies) was used with cDNA template and primers to evaluate the expression of target genes and GAPDH. Primers used were purchased from Integrated DNA Technologies. Amplifications were performed using an Applied Biosystems® 7500 Real-Time PCR System (Life Technologies). All experiments were performed in triplicate. Expression ratios of controls were normalized to 1. Please see Extended Experimental Procedures for the list of PCR primer sequences. Access of Gene Expression Microarray Data and TCGA Melanoma Patients' RNA-seq Data Time-course Illumina gene expression microarray data of WM9 melanoma cells were deposited at the NCBI Gene Expression Omnibus (GEO) (ncbi.nlm.nih.gov/geo/) under the accession number GSE58721. Normalized CCLE gene expression microarray data were directly downloaded from Broad CCLE (broadinstitute.org/ccle). Gene expression microarray data of A375 and SK-MEL-28 melanoma cells were downloaded from GEO under accession numbers GSE42872 and GSE37441, respectively. Gene expression microarray data of Malme-3M and COLO829 melanoma cells were downloaded from GEO under the accession number GSE51113. Normalized RNA-seq data of TCGA melanoma patients were downloaded from TCGA Data Portal (https://tcga-data.nci.nih.gov/tcga/). Cells were washed with ice-cold PBS containing 100 μM Na3VO4 and scraped off culture dishes. After centrifugation, cell pellets were lysed in buffer containing 10 mM Tris-HCl, pH 7.8, 150 mM NaCl, 1 mM EDTA, 1% Nonidet P-40, 1 mM Na3VO4 and protease inhibitors (Roche complete protease inhibitor tablets). Lysates were cleared by micro-centrifugation and protein concentrations were determined with Protein Assay Dye Reagent Concentrate (Bio-Rad). For western blots, 25 μg of each lysate were run on 15-well 10% or 12% SDS-PAGE gels and transferred onto nitrocellulose membranes using a dye fast Trans-BlotR Turbo™ transfer system (Bio-Rad). […]

[7] = tested on: 1205Lu melanoma xenograft; assay: Tumor volume of 1205Lu melanoma xenografts; type: in vivo, mice; conditions: 1205Lu xenografts
[8] = Table 6, mice treated 15 days, PLX4720 200 mg/kg diet, 2,4-DNP 20 mg/kg QD p.o., alone or combined

Cn1c(Nc2ccc(C(F)(F)F)cc2)nc2cc(Oc3ccnc(-c4ncc(C(F)(F)F)[nH]4)c3)ccc21 [RAF265]
drug IC50 of cell lines with higher basal level of MitoBiogenesis versus lower [1]: significantly lower drug IC50 | potency in cell-based assays ([2]; BRAFV600E and VEGFR2): most potent | potency in cell-based assays ([2]; PDGFRB and c-KIT): less active | IC50 [3]: […]

Fc1ccc(CNc2ncnc3ccc(F)cc23)cc1 [Spautin-1, reference compound]
autophagic flux (autophagic flux): effectively decreased the autophagic flux | induction of apoptosis and cell death (WM9 melanoma cells; Spautin-1 10 μM combined with PLX4720 10 μM/PD0325901 1 μM): not able to trigger a significant induction of apoptosis and cell death

CC(=O)N[C@@H](CS)C(=O)O [NAC, N-acetyl-L-cysteine]
apoptosis and cell death induced by the combination of Gamitrinib and MAPK pathway inhibitors (WM9 melanoma cells; NAC 5 mM): markedly suppress apoptosis and cell death

N=C(N)NC(=N)NCCc1ccccc1 [Phenformin, 1-phenethylbiguanide]
apoptosis and cell death, compared with other inhibitors of the drug screen (WM9 melanoma cells; titrated doses combined with MAPK pathway inhibitors (PLX4720 10 μM, PD0325901 1 μM)): greater increase in apoptosis and cell death

O=C(NOC[C@H](O)CO)c1ccc(F)c(F)c1Nc1ccc(I)cc1F [PD0325901]
expression of MitoBiogenesis (MitoBiogenesis [4]): inhibited | drug IC50 of cell lines with higher basal level of MitoBiogenesis versus lower [1]: significantly lower drug IC50

CCCS(=O)(=O)Nc1ccc(F)c(C(=O)c2c[nH]c3ncc(Cl)cc23)c1F [PLX4720]
expression of 30 mitochondria respiratory chain complex subunits ([5]; WM9, 72 h): substantially up-regulated | expression of 5 representative mitochondrial respiratory chain complex subunits ([5]; WM9, PLX4720 10 μM up to 120 h): up-regulated | expression of MitoBiogenesis (MitoBiogenesis [6]; A375 cells): decreased the expression of MitoBiogenesis | expression of MitoBiogenesis (protein) (MitoBiogenesis [6]; WM9 cells, PLX4720 10 μM, 72 h time course, immunoblotting): up-regulated in a time-dependent manner | expression of MitoBiogenesis (MitoBiogenesis [6]; WM793 or WM9 cells): up-regulated MitoBiogenesis | % T/C (percentages of tumor volumes) [7, 8]: 51.41% | % T/C (percentages of tumor volumes) ([7]; Table 7, 17 days, PLX4720 200 mg/kg diet): 56.88% | drug IC50 of cell lines with higher basal level of MitoBiogenesis versus lower [1]: significantly lower drug IC50

O=[N+]([O-])c1ccc(O)c([N+](=O)[O-])c1 [2,4-DNP, 2,4-dinitrophenol]
tumor growth ([7]; 2,4-DNP alone or with PLX4720, combination compared to PLX4720 alone): failed to inhibit tumor growth | % T/C (percentages of tumor volumes) [7, 8]: 101.96%
